The text below walks through data of article PMC6522510 (Nature Communications, 2019).

Data set [1] has as its system M07e. The data set can be described thus: cells. On the set-up: species or system AML cell lines (8); Secondary HTS, 10-point dose-response in triplicate, Cell Titer Glo viability, four-parameter fit EC50. Conditions: M-07e, 72 h, read-out: M07e.
The subject of data set [2] is Mll-PTD/wt:Flt3ITD/ITD primary transplants. In words: In vivo efficacy, survival. Details: species or system mice.
The subject of another data set is ML2. In words: Secondary dose-response HTS, Cell Titer Glo. The class given is cell-based, human. Conditions: Homo sapiens, ML-2. In general terms: Cellular ATP, detected with luciferase, serves as a proxy for viable cell number.
The next data set has as its system CMK. The data set can be described thus: Secondary dose-response HTS, Cell Titer Glo. The class given is cell-based, human. Particulars: Homo sapiens, CMK.
Data set [3] concerns CMS. It counts as cell-based. Conditions: Homo sapiens, 72 h, read-out: IC50 CMS.
In data set [4] the test system is U937. In words: Secondary dose-response HTS, Cell Titer Glo. It counts as cell-based, human. Conditions: Homo sapiens, U-937.
The test system of the next data set is THP-1. The class given is cell-based. Particulars: Homo sapiens, 72 h, Cell Titer Glo.
For data set [5], the system named is MV4-11. The class given is cell-based. Particulars: Homo sapiens, 72 h, Cell Titer Glo.
Data set [6] relates to AMKL primary AML blast samples. The data set can be described thus: Ex vivo drug treatment of primary AML blasts on mesenchymal stromal cells. The class given is cell-based. Conditions: Homo sapiens; primary blasts on MSC, 96 h.
The subject of data set [7] is CBFA2T3-GLIS2/JAK2V617F-induced AMKL model. The data set can be described thus: In vivo efficacy, survival. Details: species or system mice. Conditions: CBFA2T3-GLIS2/JAK2V617F-Luc+ quaternary transplants, i.p.
For data set [8], the system named is U937. It counts as cell-based. Conditions: Homo sapiens, U-937; 72 h, Cell Titer Glo.
The test system of data set [9] is AMKL patient-derived xenograft. In words: In vivo efficacy, survival. Details: species or system NSG-SGM3 mice. Conditions: AMKL PDX, i.p.
The test system of data set [10] is MOLM-13. The class given is cell-based. Particulars: Homo sapiens, 72 h, Cell Titer Glo.
The subject of data set [11] is CMS. The data set can be described thus: Secondary dose-response HTS, Cell Titer Glo. Conditions: Homo sapiens, HTS. It counts as cell-based, human.
Data set [12] has as its system CHRF288-11. It counts as cell-based. Particulars: Homo sapiens; 72 h, Cell Titer Glo; read-out: IC50 CHRF288-11.
Data set [13] concerns CHRF288-11. The data set can be described thus: Secondary dose-response HTS, Cell Titer Glo. It counts as cell-based, human. Conditions: Homo sapiens.
The subject of data set [14] is Mll-PTD/wt:Flt3ITD/ITD secondary transplants. In words: In vivo efficacy, survival. Conditions: 100 mg kg−1 daily x 5 days, i.p. Details: species or system mice.
Data set [15] has as its system MV4-11. In words: Secondary dose-response HTS, Cell Titer Glo. It counts as cell-based, human. Conditions: Homo sapiens, MV4-11.
On the set-up of data set [16]: method as in Wang et al., Biol Blood Marrow Transplant 2014 and others. Conditions: ref Wang et al., Biol Blood Marrow Transplant 2014 and others, cited from earlier work.
In data set [17] the test system is MOLM-13. In words: Secondary dose-response HTS, Cell Titer Glo. The class given is cell-based, human. Conditions: Homo sapiens, MOLM-13.
Data set [18] concerns CHRF288-11-luciferase/YFP+ xenograft. In words: In vivo efficacy, survival. Details: species or system NSG mice.
Data set [19] relates to AML cell lines. Conditions: human, 5 min.
Another data set concerns ML-2. It counts as cell-based. Particulars: Homo sapiens, 72 h, Cell Titer Glo.
Data set [20] relates to ML-2-luciferase/YFP+ xenograft. In words: In vivo efficacy, survival. Details: species or system NSG mice. Particulars: ML-2 xenograft, i.p.
Data set [21] deals with AML cell lines. The data set can be described thus: Intracellular drug and phosphorylated metabolites by HPLC with liquid scintillation counting. Particulars: 2 h, 1 µM.
Data set [22] has as its system Mll PTD/wt:Flt3 ITD/ITD double knock-in primary transplant blasts (bone marrow, spleen). The data set can be described thus: Accumulation in primary murine blasts. It counts as cell-based, mouse. Conditions: blasts from bone marrow or spleen. On the procedure: Cells were washed twice with ice-cold PBS; cell pellets were solubilized in 400 µL 1 N NaOH and agitated (300 rpm) at room temperature for 2 h. Then samples were neutralized with […] 1 M HCl; a 25 µL aliquot of lysate was used to estimate protein concentration using a Pierce BCA protein assay kit (Thermo Scientific). Total radioactivity was measured by a Tri-Carb 4810TR liquid scintillation counter (Perkin-Elmer) after mixing the sample with 4 mL of Emulsifier Safe (Perkin Elmer); the results were normalized to total protein content as measured by a Pierce BCA protein assay kit. Three independent experiments were performed in triplicate.
Bone marrow and splenocytes were isolated from mice transplanted with dKI AML and CG-V617 AMKL. Following red blood cells lysis, dKI AML leukemic blasts from vehicle treated mice were evaluated for accumulation of cytarabine and gemcitabine using the uptake assay described above.
Supplementary Figure 5. Accumulation of cytarabine and gemcitabine .
unlabeled and [3H]-cytarabine (Ara- C) or gemcitabine ( Gem ). Intracellular Ara- C, Gem ,
scintillation counting and normalized to protein levels. Representative chromatogram for
as disintegrations per minute (DPM) over complete run time. (c) Percentage of total
independent experiments (N=9). (d) Accumulation was determined in cell lysate of bone
double knock-in primary transplant recipient. […]

Data set [23] is described as follows: In vivo tolerability / maximum tolerated dose. On the set-up: species or system mice. Particulars: multiple doses, intermittent every 3 or 4-day schedule. The protocol:
Next, we sought to compare the in vivo efficacy of gemcitabine and cabazitaxel to the standard of care, cytarabine. Due to limitations with tolerability, we have previously treated our AML xenograft models with low-dose cytarabine[13],[31]. […] Tolerability studies of gemcitabine at the same dose and schedule was not tolerated. […] Similarly, we performed tolerability of cabazitaxel using multiple doses on an intermittent every 3 or 4-day schedule; the only tolerable dose was 5 mg/kg.
All animal studies were performed in accordance with Animal Care and Use Programs under protocols approved by the Institutional Animal Care and Use Committee at OSU. We have complied with the relevant ethical considerations for animal research overseen by this committee. Mice were housed in a barrier facility. Non-tumor bearing Ly5.2 C57Bl/6 (BoyJ) mice were treated with 100, 120, or 140 mg kg^−1 gemcitabine on an intermittent schedule every 3 days for 3 weeks; 3 or 6 mg kg^−1 doses were used to evaluate daily for 5 days schedule. All doses were administered by intraperitoneal injection; tolerability was assessed by daily weights and observation of changes in body condition.
Supplementary Figure 12. Establish maximum tolerated dose of gemcitabine. Non-tumor bearing female BoyJ mice were treated on an intermittent schedule every 3 days for 3 weeks with 100, 120, or 140 m gkg-1 gemcitabine (Gem ) or treated on a daily schedule once a day for 5 days with 3 or 6 m gkg-1 Gem. Daily weight of treated mice; data reported as a percent weight loss from day 0. Arrow indicate treatment days.

The subject of data set [24] is M07e. In words: Secondary dose-response HTS, Cell Titer Glo. The class given is cell-based, human. Conditions: Homo sapiens, M-07e; secondary HTS, 72 h, average of triplicate; read-out: EC50 M07e.
Setting [25] is: secondary high-throughput screen, read-out: average effective concentration, ML-2.
Where [26] appears, read: secondary high-throughput screen, read-out: average effective concentration, MV4-11.

Read-outs that look alike come from different tables or passages of the source. Bounds are passed on as bounds.

For orientation: IC50 means the concentration that gives 50% inhibition. With `Nc1ccn([C@@H]2O[C@H](CO)[C@@H](O)[C@@H]2O)c(=O)n1` [Cytarabine, cytarabine], the EC50 is greater than 10000 nM in the data set on M07e [1]; 100 nM with ML2 (setting [25]); 320 nM in the data set on CMK (secondary high-throughput screen, read-out: average effective concentration, CMK); 290 nM in the data set with U937 [4] (secondary high-throughput screen, U937, read-out: average effective concentration, U937); 290 nM with CMS [11] (secondary high-throughput screen, CMS, read-out: average effective concentration, CMS); 1900 nM in the data set with CHRF288-11 [13] (HTS, secondary high-throughput screen, CHRF288-11, read-out: average effective concentration, CHRF288-11). The EC50 came to 2600 nM in the data set on MV4-11 [15] (setting [26]) and 300 nM in the data set with MOLM-13 [17] (secondary high-throughput screen, read-out: average effective concentration, MOLM-13). Besides, the Median survival amounted to 50 days in data set [2] (Mll-PTD/wt:Flt3ITD/ITD primary transplants, 50 mg kg−1 q4d, i.p.); 63 days in [7] (50 mg kg−1 daily x 5 days); 80 days in [7] (100 mg kg−1 daily x 5 days); 56 days in data set [9] (50 mg kg−1 q4d); 49 days in data set [14]; 26 days in data set [18] (CHRF288-11-Luc+ model, low-dose 6.25 mg/kg once daily for 5 days for 3 weeks). The Median survival in [18] (CHRF288-11 xenograft, 50 mg kg−1 q4d, i.p.) was found to be 25 days; in data set [20] (50 mg kg−1 q4d), 29 days. Further, the IC50 was 5370 nM with CMS [3] (Cell Titer Glo); 8810 nM in the data set on THP-1; 1980 nM in the data set on MV4-11 [5]; 54 nM in data set [6]; 11 nM in the data set on U937 [8]; 31 nM with MOLM-13 [10]. The IC50 is 606 nM in the data set with CHRF288-11 [12] and 26 nM with ML-2. Further, the “triphosphate elimination α half-life” value in data set [16] (biphasic) was 7 to 20 min. The “triphosphate elimination β half-life” value in data set [16] (biphasic) is 2 to 3 h. For the same compound, the “higher concentration of cytarabine giving nearly equivalent intracellular exposure to 1 µM gemcitabine” value with AML cell lines [19] (10 µM) is given as roughly 10 fold. The “uptake at 10 µM cytarabine compared to 1 µM cytarabine” value with AML cell lines [19] (10 µM) is recorded as 1.6–3.7 fold. Further, the “uptake at 100 µM cytarabine compared to 1 µM cytarabine” value with AML cell lines [19] (100 µM) is recorded as 7–12 fold.

Turning to `Nc1ccn([C@@H]2O[C@H](COP(=O)(O)OP(=O)(O)OP(=O)(O)O)[C@@H](O)C2(F)F)c(=O)n1` [dFdCTP, gemcitabine triphosphate], in the data set on AML cell lines [21] (AML cell lines), the “accumulation of dFdCTP compared to Ara-CTP” value was 7.3–61.2 fold. Besides, in the data set on AML cell lines [21] (all cell lines evaluated), the “share of the total intracellular accumulation” value is on record as 58–81%. The “cellular elimination half-life (biphasic)” value in [16] (higher cellular concentrations) was 15 to 24 h. In addition, in data set [22], the “accumulation of dFdCTP versus Ara-CTP” value is recorded as 2.4–5.3 fold.

For the compound `CO[C@H]1C(=O)[C@]2(C)[C@@H](OC)C[C@H]3OC[C@@]3(OC(C)=O)[C@H]2[C@H](OC(=O)c2ccccc2)[C@]2(O)C[C@H](OC(=O)[C@H](O)[C@@H](NC(=O)OC(C)(C)C)c3ccccc3)C(C)=C1C2(C)C` [Cabazitaxel, cabazitaxel], the Median survival turned out to be 60 days in data set [2] (mouse, in vivo, ip); 62 days in data set [9] (5 mg kg−1 q4d); 44 days in data set [18] (CHRF288-11 xenograft, 5 mg kg−1 q4d, i.p.); 40 days in data set [18] (CHRF288-11 xenograft, 5 mg kg−1 q4d, x 2 cycles, i.p.); 82 days in data set [20] (5 mg kg−1 q4d). Also, the EC50 turned out to be 1 nM in the data set on ML2 (secondary HTS, 72 h, average of triplicate, read-out: EC50 ML2); 0.5 nM in the data set on ML2 (setting [25]); 1 nM in the data set on CMK (72 h, read-out: EC50 CMK); 1 nM in the data set on U937 [4] (secondary HTS, 72 h, average of triplicate, read-out: EC50 U937); 1 nM with CMS [11] (72 h, read-out: EC50 CMS); 1 nM in the data set with CHRF288-11 [13] (secondary HTS, 72 h, average of triplicate, read-out: EC50 CHRF288-11). Moreover, the EC50 in the data set on M07e [24] worked out at 1 nM; with MV4-11 [15] (secondary HTS, 72 h, average of triplicate, read-out: EC50 MV4-11), 0.3 nM; in the data set with MV4-11 [15] (setting [26]) it was 0.34 nM; in the data set on MOLM-13 [17] (secondary HTS, 72 h, average of triplicate, read-out: EC50 MOLM-13), 1 nM. In addition, the half-maximal inhibitory concentration (IC50) with CMS [3] was 6.3 nM; in the data set on THP-1 it was 4.4 nM; with MV4-11 [5], 1.5 nM; in data set [6], greater than 50000 nM; in the data set with U937 [8], 0.8 nM; with MOLM-13 [10], 1.2 nM. Further, the IC50 with CHRF288-11 [12] came out at 2.9 nM; in the data set with ML-2, 1.6 nM. In data set [23], this compound showed an only tolerable dose of 5 mg/kg.
